Entries after “also recorded” stand apart in the source; their conditions may differ. Read-outs that look alike come from different tables or passages of the source.
Experiments:
[1] = Acute i.v. infusion in rats; plasma and kidney levels by LC-MS-MS; type: in vivo, rat; conditions: for concentration at 6 h: male, Sprague-Dawley, intravenous
Description: For EET analog kidney-targeted delivery, we conjugated an EET analog to folic acid because there is a high concentration of folate receptors in renal tissue. The EET analog was conjugated to folic acid via a PEG-diamine linker. Next, we compared the kidney targeted EET analog, EET-FO1, to a well-studied EET analog, EET-A. EET-A or EET-FO1 was infused i.v. (10 mg/kg/hr) for 6 hours via the rat jugular vein. Plasma and kidney tissue were collected and EET-A or EET-FO1 measured by LC-MS-MS. EET-A plasma level was 1.6 ng/mL, but EET-A was undetectable in the kidney. On the other hand, EET-FO1 was 6.5 ng/mL in plasma and 26.7 ng/mL in kidney tissue. […] Experiments were conducted to compare EET-FO1 and EET-A to decrease cisplatin-induced nephrotoxicity. […] Despite it almost 2×-greater molecular weight compared with EET-A, EET-FO1 was effective in lowering BUN and NAG at 20 mg/kg/d and at a 10-fold lower dose of 2 mg/kg/d.
Acute study: Overnight fasted (12-14 hrs) male SD rats (10 weeks old) were anesthetized with sodium pentobarbital (60 mg/kg, i.p.). After a tracheostomy, the left jugular vein was cannulated to continuously infuse vehicle or EET-A or folate conjugated EET analog at a rate of 6 ml/kg/hr for 6 hours. Plasma and kidney sample were collected at the end of the protocol, snap-frozen in liquid nitrogen and stored at −80° C. until analyzed for LC-MS. EET-A and folate conjugated EET analog solutions were prepared in 0.1% DMSO and 1% PEG-400 in saline.
Mass spectrometric analysis: Plasma and kidney levels of EET-A and folate conjugated EET-A were measured by LC-ESI-MS method. Samples were prepared from 200 μl of plasma or kidney homogenate from EET-A or folate conjugated EET-A treated rats using solid phase extraction with Varian Bond Elut® C18 column (Agilent Technologies, Santa Clara, Calif., USA). The extracted samples were stored at −80° C. before analysis. Samples were warmed to room temperature, dried in a stream of nitrogen and the residue reconstituted in 20 μL of acetonitrile, […]. Components were resolved on a 250 mm×2.0 mm Kromasil C18-column packed with 5 μm diameter particles having 100 Å pores. Gradient elution from 80% A to 10% A was used with elutant flow of 0.2 mL/min. Solvent A was water with 0.01% formic acid and solvent B was acetonitrile with 0.01% formic acid using the following profile: 20% B to 30% B in 10 min, 30% B to 60% B in 17 min, 60% B to 90% B in 28 min, hold at 100% for 7 min, then 7 min re-equilibration. MS/MS analysis was performed on an Agilent 6460 triple quadrupole mass spectrometer equipped with a Jet Stream™ interface. Precursor ion, product ion, collision energy and fragmenter voltage were optimized for each compound in negative polarity. Other parameters were as follows: drying gas flow=10 L/min at 325° C., nebulizer=20 psi, sheath gas flow=11 L/min at 325° C., capillary=3.5 kV, and nozzle=1.0 kV. Results acquired at unit-mass resolution.

[2] = earlier filings PCT/US2012/032090, US 9,422,318, US 9,127,027; cited from earlier work
WKY rats = test: Cisplatin-induced nephrotoxicity in WKY rats (chronic study; BUN, NAG, renal histology); type: in vivo, rat; conditions: for lowering BUN / lowering NAG: cisplatin-treated WKY rats
Description: For EET analog kidney-targeted delivery, we conjugated an EET analog to folic acid because there is a high concentration of folate receptors in renal tissue. The EET analog was conjugated to folic acid via a PEG-diamine linker. Next, we compared the kidney targeted EET analog, EET-FO1, to a well-studied EET analog, EET-A. EET-A or EET-FO1 was infused i.v. (10 mg/kg/hr) for 6 hours via the rat jugular vein. Plasma and kidney tissue were collected and EET-A or EET-FO1 measured by LC-MS-MS.
Chronic study: In chronic study, male Wistar-Kyoto (WKY) rats weighing 180-200 g (Charles River, Mass., USA) were used. The rats were assigned into […] (n=4 in each group). […] While, rats of groups 2,3,4&5 were pre-treated with vehicle (20% DMSO in PEG-400 v/v), EET analog (EET analog in double distilled water) or novel folate conjugated EET analog F01 at 20 mg/kg and 2 mg/kg doses (prepared in a mixture of 20% DMSO in PEG400), respectively in osmotic mini pump (2 ML, Alzet, Cupertino, C A) for seven days. […] One day before euthanasia, the urine of each rat was collected over a 24-h period. […] A schematic of the protocol is depicted in FIG. 1.
Biochemical analysis:The levels of blood urea nitrogen (BUN) (BioAssay Systems, Hayward, Calif., USA) and the activity of urinary N-acetyl-β-(D)-glucosaminidase (NAG) in the urine was measured by a kit from Diazyme (Diazyme Laboratories, Poway, Calif., USA).

[3] = rat, i.v. infusion 10 mg/kg/hr for 6 hours via jugular vein, LC-MS-MS
[4] = five days following cisplatin 7 mg/kg ip, compared with EET-A 10 mg/kg ip

| SMILES | level in kidney tissue [1, 3] | plasma level [1, 3] [ng/mL] | oral activity and pharmacokinetic properties [2] | rate of reaching the plasma and the kidney, versus non-folate conjugated form ([1]; acute i.v. study) | plasma level of F01 compared to EET-A ([1]; after 6-hour continuous i.v. administration of equal doses (FIG. 2)) [fold] | kidney targeting ([1]; conclusion from plasma and kidney levels after 6 h i.v. infusion) | concentration at 6 h ([1]; kidney, rat, i.v. infusion 10 mg/kg/hr for 6 hours via jugular vein, LC-MS-MS, read-out: level in kidney tissue) [ng/mL] | concentration at 6 h ([1]; plasma, rat, i.v. infusion 10 mg/kg/hr for 6 hours via jugular vein, LC-MS-MS, read-out: plasma level) [ng/mL] | lowering BUN (WKY rats; 2 mg/kg/d) | lowering NAG (WKY rats; 2 mg/kg/d) | lowering BUN (WKY rats; 20 mg/kg/d) | lowering NAG (WKY rats; 20 mg/kg/d) | decreasing BUN (WKY rats; [4]) | decreasing NAG (WKY rats; [4]) | decreasing renal histological injury (WKY rats; [4]) | kidney protective action against cisplatin nephrotoxicity compared to EET-A (from BUN and urinary NAG) (WKY rats; pre-treatment, then 5 days treatment after cisplatin (FIG. 3), listed as F01) |
| --- | --- | --- | --- | --- | --- | --- | --- | --- | --- | --- | --- | --- | --- | --- | --- | --- |
| CCCCCNC(=O)NCCCC/C=C\CCCCCCC(=O)N[C@@H](CC(=O)O)C(=O)O [EET-A, reference compound] | undetectable; also recorded: almost un-detectable | 1.6 | orally active with good pharmacokinetic properties | – | – | – | – | – | – | – | – | – | – | – | – | – |
| CCCCCCC(=O)N(CCCCCOc1cccc2sc(NC(=O)C(C)(C)C)nc12)C(C)C [EET-B] | – | – | orally active with good pharmacokinetic properties | – | – | – | – | – | – | – | – | – | – | – | – | – |
| CCCCCNC(=O)NCCCC/C=C\CCCCCCC(=O)NCCOCCOCCNC(=O)CC[C@H](NC(=O)c1ccc(NCc2cnc3nc(N)[nH]c(=O)c3n2)cc1)C(=O)O [EET-FO1] | – | – | – | faster rate | 5 | targets the kidney | 26.7 | 6.5 | effective | effective | effective | effective | as effective as EET-A | as effective as EET-A | as effective as EET-A | better kidney protective action; also recorded: superior kidney protective action |
